Experimental data as given in US20130295017A1, “METHODS FOR SCREENING ANTIBIOTIC COMPOUNDS” (priority 2010, published 2013).

System: S. aureus strain ALC6094
Test: Murine model of subcutaneous infection (abscess), IPTG induction of MazFsa
Assay type: in vivo, Balb/C female mice
Conditions: for Log10 CFU/abscess: sacrifice day 4, n = 9
Excerpt: A murine model of subcutaneous infections (abscess) was used. Such models are well-established as methods to screen for in vivo activity to affect infection processes (Tamber et al. 2010. Infect. Immun. 78:3637-3646).
In the present experiments, a bacterial strain ALC6094, which is a derivative of S. aureus strain Newman was used. This strain contains a chromosomal copy of the T7 polymerase gene and the plasmid pG164::mazFsa, which is a shuttle plasmid with an IPTG-inducible T7 promoter driving MazFsa expression. Mice were challenged with 2×10^7 CFU of bacteria via subcutaneous (s.q.) injection and mixed with 1 mM IPTG immediately before injection. After injection, half of the IPTG-treated animals received two saline injections daily while the remaining half were injected with 1 mM IPTG (s.q.) daily for 2 days. All animals were sacrificed on day 4, including untreated control groups receiving no IPTG. […] Thus, drugs that disrupt the MazEF complex would be novel compounds for use in treating S. aureus bacterial infections.
Balb/C female mice (20-22 grams) were used to assess the utility of disrupting MazEFsa activity in vivo as a potential method for testing for drug efficacy. The mice were infected subcutaneously with 200 μl of 1.5×10^8 CFU/ml of bacteria. The bacterial strain used was ALC6094, which is a derivative of S. aureus strain Newman containing a chromosomal copy of the T7 polymerase gene and the plasmid pG164::mazFsa, which is a shuttle plasmid with an IPTG-inducible T7 promoter driving MazFsa expression. Control mice were infected with the bacteria but received no further injections. Two treatment groups were tested: 1) mice injected with ALC6094 that was mixed with IPTG immediately before injection (1 ml of a 5 mM solution of IPTG); and 2) mice injected with ALC6094 mixed with IPTG and then given daily IPTG injections for two subsequent days. Animal were sacrificed on day 4 after injection. Only mice receiving saline control developed visible abscesses by day 3, while those animals receiving IPTG had visible erythematous injection sites.

SMILES: CC(C)S[C@@H]1O[C@H](CO)[C@H](O)[C@H](O)[C@H]1O [IPTG]
- Log10 CFU/abscess (ALC6094 mixed with IPTG immediately before s.q. injection): 6.57 ± 0.83 Log10 CFU/abscess
- Log10 CFU/abscess (ALC6094 mixed with IPTG plus daily IPTG injections for two subsequent days): 6.59 ± 0.95 Log10 CFU/abscess
- abscess size vs. no IPTG controls (mice receiving IPTG induction for MazFsa): smaller abscess sizes
